# Like-named read-outs stand apart in the source and are kept apart here. Bridge positions count the residues as written; N and C are the ends. Square brackets hold non-standard residues; d marks the D form. Peptide text beside a SMILES is read from it. R8 = C=CCCCCCC[C@@](C)(N)C(=O)O; R5 = C=CCCC[C@@](C)(N)C(=O)O; S5 = C=CCCC[C@](C)(N)C(=O)O
# What was measured:
# FAK FAT domain = molecular target: T1, FAK FAT domain (Homo sapiens, UniProt Q05397); assay: SPR binding to immobilized biotinylated FAK FAT
# T1 sequence (Q05397 914-1045 limits assumed): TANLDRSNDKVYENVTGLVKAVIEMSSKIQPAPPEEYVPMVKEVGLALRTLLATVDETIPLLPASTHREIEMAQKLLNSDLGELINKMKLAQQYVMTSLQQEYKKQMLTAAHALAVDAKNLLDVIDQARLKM
# Method: SPR binding studies were performed using biotinylated FAK FAT protein[51]. Briefly, SPR binding assays were performed on a ForteBio Pioneer FE SPR system using SPR running buffer (100 mM Tris-Cl pH 8.0, 200 mM NaCl, and 0.05% Tween-20). […] Desired immobilization levels were determined utilizing the following Eq. 1:1 Rmax=RproteinxMranalyte/MrproteinxVprotein where Rmax is the highest possible response of binding between the analyte and the protein, Rprotein is the change in response by the immobilization of the protein, Mr represents the mass of the analyte or protein, and Vprotein represents the number of binding sites on the protein. A target Rmax of approximately 100 RU was chosen.
# All samples were diluted in the SPR buffer to a volume of 200 µl and injected using the OneStep gradient injection system at a flow rate of 150 µl/min. For a bulk standard control, a 3% (w\v) solution of sucrose in SPR buffer was used for injection. […] SPR data analysis utilized Qdat software (ForteBio, version 4.3.2 build 8) for normalization of the baseline prior to injection, channel alignment, and reference channel and blank subtraction.
# [1] = molecular target: T2, FAK FAT / TAMRA-paxillin LD2 L10D (Homo sapiens, UniProt Q05397); assay: Fluorescence polarization competition (FAK-paxillin) assay; assay type: binding
# T2 construct: assay was performed using FAK FAT protein and TAMRA-LD2 L10D peptide
# T2 sequence (Q05397 919-1052): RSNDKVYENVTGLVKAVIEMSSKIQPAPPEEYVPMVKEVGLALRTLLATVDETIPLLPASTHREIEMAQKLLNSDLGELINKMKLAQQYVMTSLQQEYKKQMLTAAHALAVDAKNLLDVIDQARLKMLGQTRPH
# Method: The IC50 was calculated using a four-parameter dose-response inhibition model, with the bottom fit constrained to the lower plateau of the binding curve.
# trypsin = assay: Trypsin proteolytic resistance assay; settings: immobilized trypsin-agarose resin
# Method: Cell permeability of peptide drugs was determined by fluorescence measurement of TAMRA-labeled peptides in 96-well plates and ClarioStar Plus plate reader using BMG ClarioStar MARS software (version 4.20). […] Percent uptake was calculated as background-subtracted fluorescence absorbed by cells/fluorescence of peptide in media-only wells, then made relative to TAMRA-Alkyne. Three biological replicates (n = 3) were performed per cell line per treatment group. Peptide proteolysis was measured using immobilized Trypsin-agarose resin (Thermo Fisher) and quantification by LC-MS. […] In vivo pharmacokinetics were performed by the UACC Analytical Chemistry Shared Resource. […] The mice were fed NIH-31 irradiated pellets (Tekland Premier, Madison, Wisconsin), and reverse osmosis water was freely available. […] The average plasma concentration versus time data were analyzed using PKSolver (version 2.0) by a noncompartmental approach.
# Plasma stability = settings: mouse plasma
# [2] = one-site kinetic fit, mean ± SD of n = 2-5 biological replicates, Tris pH 8.0, read-out: SPR KD
smiles,measurement,setting,value
CC(=O)N[C@@H](CC(N)=O)C(=O)N[C@@H](CC(C)C)C(=O)N[C@@H](CO)C(=O)N[C@]1(C)CCCCCCC=CCCC[C@@](C)(C(=O)N[C@@H](CC(C)C)C(=O)N[C@@H](CC(N)=O)C(N)=O)NC(=O)[C@H](CC(C)C)NC(=O)[C@H](CC(C)C)NC(=O)[C@H](CC(C)C)NC(=O)[C@H](CCCNC(=N)N)NC(=O)[C@H](CC(=O)O)NC(=O)[C@H](CC(C)C)NC1=O [compound 1905] (Ac-NLS[R8]LDRLLL[S5]LN-NH2; staple 4-11),Kd,FAK FAT domain; [2],146 µM
same,Ki,"[1]; Rep1, read-out: FP (Ki) data",> 1.25 mM
same,Ki,"[1]; Rep2, read-out: FP (Ki) data",> 1.25 mM
same,Ki,"[1]; Rep3, read-out: FP (Ki) data",> 1.25 mM
CC(=O)N[C@@H](CC(N)=O)C(=O)N[C@@H](CC(C)C)C(=O)N[C@]1(C)CCCCCCC=CCCC[C@@](C)(C(=O)N[C@@H](CCC(=O)O)C(=O)N[C@@H](CC(C)C)C(=O)N[C@@H](CC(N)=O)C(N)=O)NC(=O)[C@H](CC(C)C)NC(=O)[C@H](CC(C)C)NC(=O)[C@H](CCCNC(=N)N)NC(=O)[C@H](CC(=O)O)NC(=O)[C@H](CC(C)C)NC(=O)[C@H](CCC(=O)O)NC1=O [compound 1907],half-life at 100 µM,trypsin,1700 min
same,"remaining at 0.25 h, 100 µM",trypsin,80%
same,"remaining at 0.5 h, 100 µM",trypsin,73%
same,"remaining at 1 h, 100 µM",trypsin,72%
same,"remaining at 2 h, 100 µM",trypsin,73%
same,"remaining at 3 h, 100 µM",trypsin,62%
same,"remaining at 4 h, 100 µM",trypsin,58%
same,"remaining at 8 h, 100 µM",trypsin,56%
same,"remaining at 24 h, 100 µM",trypsin,43%
same,"remaining at 48 h, 100 µM",trypsin,31%
CC(=O)N[C@@H](CC(N)=O)C(=O)N[C@@H](CC(C)C)C(=O)N[C@]1(C)CCCCCCC=CCCC[C@@](C)(C(=O)N[C@@H](CCC(N)=O)C(=O)N[C@@H](CC(C)C)C(=O)N[C@@H](CC(N)=O)C(N)=O)NC(=O)[C@H](CC(C)C)NC(=O)[C@H](CC(C)C)NC(=O)[C@H](CCCNC(=N)N)NC(=O)[C@H](CC(=O)O)NC(=O)[C@H](CC(C)C)NC(=O)[C@H](CCC(N)=O)NC1=O [compound 1910] (Ac-NL[R8]QLDRLL[S5]QLN-NH2; staple 3-10),Kd,FAK FAT domain; [2],22.6 µM
CC(=O)N[C@@H](CC(N)=O)C(=O)N[C@@H](CC(C)C)C(=O)N[C@@H](CO)C(=O)N[C@@H](CCC(=O)O)C(=O)N[C@]1(C)CCCCCCC=CCCC[C@@](C)(C(=O)N[C@@H](CC(N)=O)C(N)=O)NC(=O)[C@H](CCC(=O)O)NC(=O)[C@H](CC(C)C)NC(=O)[C@H](CC(C)C)NC(=O)[C@H](CC(C)C)NC(=O)[C@H](CCCNC(=N)N)NC(=O)[C@H](CC(=O)O)NC1=O [compound 1914] (Ac-NLSE[R8]DRLLLE[S5]N-NH2; staple 5-12),Kd,FAK FAT domain; [2],120 µM
same,Ki,"[1]; Rep1, read-out: FP (Ki) data",> 1.25 mM
same,Ki,"[1]; Rep2, read-out: FP (Ki) data",> 1.25 mM
same,Ki,"[1]; Rep3, read-out: FP (Ki) data",> 1.25 mM
CC(=O)N[C@@H](CC(N)=O)C(=O)N[C@@H](CC(C)C)C(=O)N[C@@H](CO)C(=O)N[C@@H](CCC(=O)O)C(=O)N[C@@]1(C)CCCC=CCCC[C@@](C)(C(=O)N[C@@H](CC(C)C)C(=O)N[C@@H](CCC(=O)O)C(=O)N[C@@H](CC(C)C)C(=O)N[C@@H](CC(N)=O)C(N)=O)NC(=O)[C@H](CC(C)C)NC(=O)[C@H](CCCNC(=N)N)NC(=O)[C@H](CC(=O)O)NC1=O [compound 1919] (Ac-NLSE[S5]DRL[S5]LELN-NH2; staple 5-9),Kd,FAK FAT domain; [2],80.6 µM
CC(=O)N[C@@H](CO)C(=O)N[C@@H](CC(C)C)C(=O)NCC(=O)N[C@@H](CO)C(=O)N[C@@H](CC(N)=O)C(=O)N[C@@H](CC(C)C)C(=O)N[C@]1(C)CCCCCCC=CCCC[C@@](C)(C(=O)N[C@@H](CCC(=O)O)C(=O)N[C@@H](CC(C)C)C(=O)N[C@@H](CC(N)=O)C(=O)N[C@@H](C)C(=O)N[C@H](C(=O)N[C@@H](CCC(N)=O)C(=O)N[C@@H](Cc2c[nH]cn2)C(N)=O)C(C)C)NC(=O)[C@H](CC(C)C)NC(=O)[C@H](CC(C)C)NC(=O)[C@H](CCCNC(=N)N)NC(=O)[C@H](CC(=O)O)NC(=O)[C@H](CC(C)C)NC(=O)[C@H](CCC(=O)O)NC1=O [compound 1920] (Ac-SLGSNL[R8]ELDRLL[S5]ELNAVQH-NH2; staple 7-14),Kd,"FAK FAT domain; two-site model, site 1, mean ± SD, read-out: SPR KD1",0.9 ± 0.5 µM
same,Kd,"FAK FAT domain; two-site model, site 2, mean ± SD, read-out: SPR KD2",9.8 ± 6.9 µM
CC(=O)N[C@@H](CC(N)=O)C(=O)N[C@@H](CC(C)C)C(=O)N[C@@H](CO)C(=O)N[C@@H](CCC(=O)O)C(=O)N[C@@H](CC(C)C)C(=O)N[C@@H](CC(=O)O)C(=O)N[C@@H](CCCNC(=N)N)C(=O)N[C@@H](CC(C)C)C(=O)N[C@]1(C)CCCC=CCCC[C@@](C)(C(=O)N[C@@H](CC(N)=O)C(N)=O)NC(=O)[C@H](CCC(=O)O)NC(=O)[C@H](CC(C)C)NC1=O [compound 1921] (Ac-NLSELDRL[R5]LE[S5]N-NH2; staple 9-12),Kd,"FAK FAT domain; Rep1, read-out: SPR (KD)",> 200 µM
same,Kd,"FAK FAT domain; Rep2, read-out: SPR (KD)",> 200 µM
same,Kd,"FAK FAT domain; Rep3, read-out: SPR (KD)",> 200 µM
same,Kd,FAK FAT domain; [2],> 200 µM
CC(=O)N[C@@H](CC(N)=O)C(=O)N[C@@H](CC(C)C)C(=O)N[C@]1(C)CCCCCCC=CCCC[C@@](C)(C(=O)N[C@@H](CCC(=O)O)C(=O)N[C@@H](CC(C)C)C(=O)N[C@@H](CC(N)=O)C(N)=O)NC(=O)[C@H](Cc2c[nH]c3ccccc23)NC(=O)[C@H](CC(C)C)NC(=O)[C@H](CCCNC(=N)N)NC(=O)[C@H](CC(=O)O)NC(=O)[C@H](CC(C)C)NC(=O)[C@H](CCC(=O)O)NC1=O [compound 2007],Kd,FAK FAT domain; [2],60.6 µM
CC(=O)N[C@@H](CC(N)=O)C(=O)N[C@@H](CC(C)C)C(=O)N[C@]1(C)CCCCCCC=CCCC[C@@](C)(C(=O)N[C@@H](CCC(=O)O)C(=O)N[C@@H](CC(C)C)C(=O)N[C@@H](CC(N)=O)C(N)=O)NC(=O)[C@H](CC(C)C)NC(=O)[C@H](CC(C)C)NC(=O)[C@H](CCCNC(=N)N)NC(=O)[C@H](CC(=O)O)NC(=O)[C@H](CC(C)C)NC(=O)[C@H](C)NC1=O [compound 2009],Kd,FAK FAT domain; [2],3.4 µM
CC(=O)N[C@]1(C)CCCCCCC=CCCC[C@@](C)(C(N)=O)NC(=O)[C@H](CC(C)C)NC(=O)[C@H](CC(C)C)NC(=O)[C@H](CCCNC(=N)N)NC(=O)[C@H](CC(=O)O)NC(=O)[C@H](CC(C)C)NC(=O)[C@H](CCC(=O)O)NC1=O [compound 2011] (Ac-[R8]ELDRLL[S5]-NH2; staple 1-8),Kd,"FAK FAT domain; Rep1, read-out: SPR (KD)",> 200 µM
same,Kd,"FAK FAT domain; Rep2, read-out: SPR (KD)",> 200 µM
same,Kd,"FAK FAT domain; Rep3, read-out: SPR (KD)",> 200 µM
same,Kd,"FAK FAT domain; read-out: SPR KD, pH 8",> 200 µM
same,Ki,[1],> 0.333 mM
same,Ki,"[1]; Rep2, read-out: FP (Ki) data",> 0.333 mM
CC(=O)N[C@@H](CC(N)=O)C(=O)N[C@@H](CC(C)C)C(=O)N[C@@H](CO)C(=O)N[C@@H](CCC(=O)O)C(=O)N[C@@H](CC(C)C)C(=O)N[C@@H](CC(=O)O)C(=O)N[C@@H](CCCNC(=N)N)C(=O)N[C@@]1(C)CCCC=CCCC[C@@](C)(C(=O)N[C@@H](CC(N)=O)C(N)=O)NC(=O)[C@H](CCC(=O)O)NC(=O)[C@H](CC(C)C)NC(=O)[C@H](CC(C)C)NC1=O [compound 2015] (Ac-NLSELDR[S5]LLE[S5]N-NH2; staple 8-12),Kd,FAK FAT domain,30.6 µM
CC(=O)N[C@@H](CC(N)=O)C(=O)N[C@]1(C)CCCCCCC=CCCC[C@@](C)(C(=O)N[C@@H](CC(C)C)C(=O)N[C@@H](CCC(=O)O)C(=O)N[C@@H](CC(C)C)C(=O)N[C@@H](CC(N)=O)C(N)=O)NC(=O)[C@H](CC(C)C)NC(=O)[C@H](CCCNC(=N)N)NC(=O)[C@H](CC(=O)O)NC(=O)[C@H](CC(C)C)NC(=O)[C@H](CCC(=O)O)NC(=O)[C@H](CO)NC1=O [compound 2017] (Ac-N[R8]SELDRL[S5]LELN-NH2; staple 2-9),Kd,FAK FAT domain; [2],27.9 µM
CC(C)[N+](C)(CCOC(=O)C1c2ccccc2Oc2ccccc21)C(C)C [propantheline bromide],% remaining in plasma,"Plasma stability; 0 min, Rep1",105%
same,% remaining in plasma,"Plasma stability; 0 min, Rep2",100%
same,% remaining in plasma,"Plasma stability; 0 min, Rep3",95%
same,% remaining in plasma,"Plasma stability; 15 min, Rep1",85%
same,% remaining in plasma,"Plasma stability; 15 min, Rep2",78%
same,% remaining in plasma,"Plasma stability; 15 min, Rep3",86%
same,% remaining in plasma,"Plasma stability; 30 min, Rep1",73%
same,% remaining in plasma,"Plasma stability; 30 min, Rep2",70%
same,% remaining in plasma,"Plasma stability; 30 min, Rep3",68%
same,% remaining in plasma,"Plasma stability; 60 min, Rep1",58%
same,% remaining in plasma,"Plasma stability; 60 min, Rep2",52%
same,% remaining in plasma,"Plasma stability; 60 min, Rep3",50%
same,% remaining in plasma,"Plasma stability; 90 min, Rep1",30%
same,% remaining in plasma,"Plasma stability; 90 min, Rep2",42%
same,% remaining in plasma,"Plasma stability; 90 min, Rep3",36%
same,% remaining in plasma,"Plasma stability; 120 min, Rep1",29%
same,% remaining in plasma,"Plasma stability; 120 min, Rep2",31%
same,% remaining in plasma,"Plasma stability; 120 min, Rep3",27%
same,plasma stability t1/2,Plasma stability; n = 3,66 min
